Results reported in patent publication US20250332132A1, “SELENIUM-CONTAINING SUBSTANCE FOR TREATMENT OF CANCER” (SHANGHAI INSTITUTE OF NUTRITION AND HEALTH, CHINESE ACADEMY …, priority 2022, published 2025).

Legend:
[1] = Selenium content in subcutaneous xenograft tumors; type: in vivo, mouse; settings: mice, after SeMet treatment
[2] = tested on: Treg cells, IL-17a-secreting TH17 cells; experiment: Flow cytometry of Treg and TH17 cells in B16 xenograft tumors; type: in vivo, mouse (C57BL/6J)
Description: (§1) Preparation of single-cell suspension from mouse tumor cells: 200 mg of mouse tumor tissue was obtained, cut into pieces and added to 2.43 ml of tumor digestion solution, followed by digestion in a 37° C. shaking water bath for 30 minutes. Flow cytometry staining included surface antigen staining and intracellular factor (cytokines and transcription factors) staining. For the cytokine detection, broad-spectrum activation inhibitors (PMA, ionomycin, or BFA, added at a ratio of 1:1000) were first prepared with the RPMI-1640 medium. 100 μl of each reagent was added to resuspend the cells, and the cells were then transferred to a 96-well plate and treated in a 37° C. cell incubator for 4-6 h. Subsequently, 200 μl of FACS buffer was added, and the cells were pipetted to mix evenly before transferred to a 1.5 ml eppendorf tube. The tube was centrifuged at 350 g for 5 minutes, and the supernatant was carefully aspirated. Cells were resuspended in 100 μl of PBS. For the surface antigen staining, the above steps were omitted. The cell suspension was placed on ice, and live/dead dye (at a ratio of 1:1000) was added. Staining was performed on ice in darkness for 30 minutes. Cells were washed with 1 ml of PBS, centrifuged at 350 g for 5 minutes, and the supernatant was carefully removed. […]

[3] = tested on: Treg cells, IL-17a-secreting TH17 cells; experiment: Flow cytometry of Treg and TH17 cells in CT26 colon tumors; type: in vivo, mouse (BALB/C)
Description: as §1

[4] = tested on: LLC cell subcutaneous xenograft tumors; experiment: Subcutaneous LLC xenograft tumor model in mice (tumor growth, volume, weight); type: in vivo, mouse (C57BL/6J)
Description: FIG. 1 panel A: Experimental pattern diagram. Mice were first subcutaneously injected with LLC cells (2*10^5 cells per mouse) to establish xenograft tumors. After 14 days of tumor formation, mice received SeMet treatment for two weeks, with intraperitoneal injection of SeMet at a dose of 2 mg/kg, 5 times per week; FIG. 1 panel B: Tumor growth statistical curve in mice; FIG. 1 panel C: Representative photographic results of mouse tumors.
FIG. 5 illustrates the therapeutic effects of SeMet and PD-1 antibody on LLC cell subcutaneous xenograft tumors in mice. FIG. 5 panel A: Experimental pattern diagram. Mice were first subcutaneously injected with LLC cells (2*10^5 cells per mouse) to establish xenograft tumors. After 14 days of tumor formation, mice were treated with SeMet and PD-1 antibody alone or in combination by intraperitoneal injection for two weeks. The dosage of SeMet was 2 mg/kg, 5 times per week; the dosage of PD-1 antibody was 200 μg per mouse, 2 times per week; FIG. 5 panel B: Tumor growth statistical curve in mice; FIG. 5 panel C: Ratio of tumor to body weight in mice; FIG. 5 panel D: Representative photographic results of mouse tumors.
All animal experiments were approved by the Animal Ethics Committee of the Institute of Nutrition Sciences, Shanghai Institutes for Biological Sciences, Chinese Academy of Sciences, and were conducted in accordance with the protocols approved by the Animal Care and Use Committee of Shanghai Institutes for Biological Sciences. Six-week-old C57BL/6J mice were purchased from Shanghai Slake Experimental Animal Co., Ltd. and were housed in an SPF-grade animal facility. […] The tumor size was measured every two days, and the tumor volume (mm^3) was calculated using the following formula: ½×a×b^2, wherein a was the long diameter and b was the short diameter of the tumor. After the mice were euthanized, the tumors were excised, weighed, and the average weight of tumors in each group was calculated. The excised tumors were fixed with paraformaldehyde for subsequent immunohistochemical or immunofluorescence analysis.
C57BL/6J mice were subcutaneously injected with LLC cells (2*10^5 cells per mouse) to establish xenograft tumors. After 14 days of tumor formation, mice received SeMet treatment for two weeks (FIG. 1 panel A).
Subsequently, we investigated the therapeutic effects of SeMet and PD-1 antibody used alone or in combination on LLC cell subcutaneous xenograft tumors in mice. Mice were first subcutaneously injected with LLC cells (2*10^5 cells per mouse) to establish xenograft tumors. After 14 days of tumor formation, mice were treated with SeMet and PD-1 antibody alone or in combination by intraperitoneal injection for two weeks. The dosage and frequency of SeMet were the same as previously described, while the dosage of PD-1 antibody was 200 μg per mouse, 2 times per week (FIG. 5 panel A).
An L-selenomethionine was used to construct an N-acetyl-selenomethionine (N-Ac-SeMet) to improve its stability. To verify the therapeutic effect of the N-acetyl-selenomethionine on lung cancer, C57BL/6J mice were subcutaneously injected with LLC cells (2*10^5 cells per mouse) to establish xenograft tumors and divided into four groups: control group, selenomethionine (SeMet) treated group, N-acetyl-selenomethionine (N-Ac-SeMet) treated group, and anti-PD1 treated group. After 14 days of tumor formation, the mice in each group were treated for two weeks.

[5] = tested on: CD4 and Foxp3; experiment: qPCR of CD4 and Foxp3 expression in LLC xenograft tumors; type: in vivo, mouse (C57BL/6J); settings: vs control group, FIG. 7A
Description: After the cells were cultured or treated, the medium was discarded, and the cells were washed once with ice-cold PBS. Then, 1 mL of Trizol reagent was added, and the cells were completely blown down. If it was for the tissue, 10-20 mg of tissue was homogenized into a homogenate using a grinder, with the addition of steel beads and 1 mL of Trizol. 200 μL of chloroform was added into the cell or tissue homogenate in 1 mL of Trizol, mixed vigorously, and placed on ice for 5 minutes. The mixture was centrifuged at 12,000 rpm for 10 minutes at 4° C. Then, 400 μL of the supernatant was carefully aspirated and added to an equal volume of isopropanol, vigorously mixed, and placed on ice for 15 minutes and centrifuged again at 12,000 rpm for 10 minutes at 4° C. Afterwards, a white RNA precipitate was visible at the bottom. The supernatant was carefully discarded, and 1 ml of 75% ethanol (diluted with DEPC-treated water) was added. […] A certain volume of DEPC-treated water was added to dissolve the RNA, and the concentration was measured. […] The genomic DNA removal reaction system was as follows: According to the gene primers to be detected, the above-mentioned Mix without the cDNA template was prepared, mixed thoroughly, and kept on ice until use. […] The detection program was as follows: After detection, the relative gene expression levels were calculated using the 2^−┐┐T method.

[6] = tested on: selenoproteins; experiment: qPCR / Western blot of selenoprotein expression in LLC xenograft tumors; type: in vivo, mouse (C57BL/6J)
[7] = tested on: CD45+ immune cells, CD25+Foxp3+ Treg cells, IL-17a+ TH17 cells; experiment: Flow cytometry of immune cells in LLC xenograft tumors; type: in vivo, mouse (C57BL/6J)
Description: Preparation of single-cell suspension from mouse tumor cells: 200 mg of mouse tumor tissue was obtained, cut into pieces and added to 2.43 ml of tumor digestion solution, followed by digestion in a 37° C. shaking water bath for 30 minutes. Flow cytometry staining included surface antigen staining and intracellular factor (cytokines and transcription factors) staining. For the cytokine detection, broad-spectrum activation inhibitors (PMA, ionomycin, or BFA, added at a ratio of 1:1000) were first prepared with the RPMI-1640 medium. 100 μl of each reagent was added to resuspend the cells, and the cells were then transferred to a 96-well plate and treated in a 37° C. cell incubator for 4-6 h. Subsequently, 200 μl of FACS buffer was added, and the cells were pipetted to mix evenly before transferred to a 1.5 ml eppendorf tube. The tube was centrifuged at 350 g for 5 minutes, and the supernatant was carefully aspirated. Cells were resuspended in 100 μl of PBS. For the surface antigen staining, the above steps were omitted. The cell suspension was placed on ice, and live/dead dye (at a ratio of 1:1000) was added. Staining was performed on ice in darkness for 30 minutes. Cells were washed with 1 ml of PBS, centrifuged at 350 g for 5 minutes, and the supernatant was carefully removed. The cell precipitate was resuspended in the FACS buffer, and the blocking antibody CD16/CD32 was added at a ratio of 1:200. The mixture was placed on ice in darkness for 30 minutes. Subsequently, surface antibodies were added at a ratio of 1:200: CD45, CD3, CD4, and CD25 antibodies were sequentially added for Treg cell surface staining; CD45, CD3, and CD4 antibodies were sequentially added for Th17 cell staining. Incubation was performed on ice in darkness for 30 minutes. Cells were washed with 1 ml of the FACS buffer, then centrifuged at 350 g for 5 minutes, and the supernatant was carefully removed. For intracellular factor staining, 250 μl of the fixation/permeabilization solution was added, and the cells were incubated on ice in darkness for 2 h. Then, 1 ml of the fixation/permeabilization wash buffer was added, the cells were centrifuged at 500 g for 5 minutes, and the supernatant was carefully removed. Cells were resuspended in the fixation/permeabilization wash buffer, and intracellular antibodies Foxp3 and IL-17A were added at a ratio of 1:200. The cells were incubated on ice in darkness for 30 minutes. After washing with 1 ml of the FACS buffer and centrifugation at 500 g for 5 minutes, the supernatant was carefully removed. Cells were resuspended in 200 μl of the FACS buffer and prepared for flow cytometry analysis.

[8] = tested on: PD-L1; experiment: qPCR, WB and immunofluorescence of PD-L1 expression in LLC xenograft tumors; type: in vivo, mouse (C57BL/6J); settings: immunofluorescence, FIG. 4
[9] = tested on: B16 melanoma cells; experiment: Subcutaneous B16 melanoma xenograft tumor model in mice; type: in vivo, mouse (C57BL/6J); settings: C57BL/6J mice, B16 2*10^5 cells s.c.; treated two weeks from day 14; FIG. 10
Description: To verify the therapeutic effect of selenomethionine (SeMet) on melanoma, C57BL/6J mice were subcutaneously injected with B16 melanoma cells (2*10^5 cells per mouse) to establish xenograft tumors. After 14 days of tumor formation, the mice were treated with SeMet for two weeks (FIG. 10 panel A).

[10] = tested on: colon cancer CT26 cells; experiment: Orthotopic CT26 colon cancer model in mice; type: in vivo, mouse (BALB/C); settings: BALB/C mice, CT26 tumor pieces implanted orthotopically at cecal end; treatment from second day; effects similar to anti-PD1; FIG. 12 A-B
Excerpt: To verify the therapeutic effect of selenomethionine (SeMet) on colon cancer, BALB/C mice were subcutaneously inoculated with colon cancer CT26 cells. After subcutaneous xenograft tumors grew to a certain size, the tumors were cut into 1 mm*1 mm*1 mm pieces that were then orthotopically implanted at the cecal end of the mice. SeMet intervention was initiated on the second day after orthotopic tumor formation.

[11] = NSCLC subcutaneous xenograft tumor model, vs control group, summary statement
[12] = NSCLC subcutaneous xenograft tumor model, summary statement

C[Se]CC[C@H](N)C(=O)O [SeMet, L-selenomethionine]
selenium content in subcutaneous xenograft tumors [1]: significantly increased | proportion of Treg cells ([2]; FIG. 11 A, C): significantly reduced | proportion of IL-17a-secreting TH17 cells ([2]; FIG. 11 B, D): significantly increased | proportion of Treg cells ([3]; FIG. 12 C, E): significantly reduced | proportion of IL-17a-secreting TH17 cells ([3]; FIG. 12 D, F): increased | growth of subcutaneous LLC tumors (tumor growth curves) ([4]; C57BL/6J mice, LLC 2*10^5 cells s.c., after 14 days SeMet 2 mg/kg i.p. 5 times per week for two weeks, FIG. 1): effectively inhibit the growth of subcutaneous LLC tumors | tumor growth ([4]; LLC s.c. tumors, i.p. two weeks from day 14, SeMet 2 mg/kg 5 times per week, PD-1 antibody 200 μg per mouse 2 times per week, alone or combined, vs control, FIG. 5B): significantly reduced | tumor mass [4, 11]: significantly reduced | tumor volume [4, 11]: significantly reduced | tumor growth [4, 12]: significantly inhibit tumor growth | tumor volume and mass compared with the PD-1 group [4, 12]: no significant difference | ratio of tumor to body weight ([4]; same study as FIG. 5B, FIG. 5C): validated this result | visual inspection of excised subcutaneous mouse tumors ([4]; same study, FIG. 5D): significantly reduced | expression levels of CD4 and Foxp3 (mRNA) [5]: reduced | expression of SOD1 and GPX1 at the protein level ([6]; LLC xenograft tumors, vs control group, WB, FIG. 3 M-N): significant increase | expression of selenoproteins SOD1, SOD2, GPX1, GPX2, GPX4, Sephs2, Sepx1, SelS, SelP, Txnrd1, Txnrd2, Txnrd3 at the mRNA level ([6]; LLC xenograft tumors, vs control group, qPCR, FIG. 3 A-L): significant increase | expression of selenoproteins GPX1, GPX2, SOD1, SOD2, Sephs2, Sepx1, SelS, Txnrd1, Txnrd2, SelF, Selk, SelW, MT2 at the mRNA level ([6]; LLC xenograft tumors, vs control group, qPCR, FIG. 6): increased | levels of major selenoproteins, including GPX1, GPX4 ([6]; NSCLC tissues after treatment, summary statement): significantly increased | number of CD45+ immune cells ([7]; LLC tumors digested into single cells, flow cytometry, FIG. 7 B-C): significantly increased | proportion of CD25+Foxp3+ Treg cells ([7]; LLC tumors, flow cytometry, FIG. 7 D-E): significantly reduced | proportion of IL-17a-secreting TH17 cells ([7]; LLC tumors, flow cytometry, FIG. 7 F-G): significantly increased | number of Treg cells infiltrating the tumor ([7]; NSCLC tissues, flow sorting, summary statement): significantly reduced | expression of PD-L1 [8]: increased | growth of subcutaneous B16 tumors [9]: effectively inhibited the growth of subcutaneous B16 tumors, with effects similar to anti-PD1 treatment | colon cancer growth [10]: effectively inhibited

C[Se]CC[C@H](NC(C)=O)C(=O)O [N-Ac-SeMet, N-acetyl-selenomethionine]
average tumor weight ([4]; LLC s.c. tumors, end of treatment, vs control, p<0.05, FIG. 8C): significantly lower than those in the control group | tumor weight-to-body weight ratio ([4]; LLC s.c. tumors, end of treatment, vs control, p<0.05, FIG. 8D): significantly lower than those in the control group | tumor volume ([4]; LLC s.c. tumors, treated two weeks from day 14, Day 15, vs control, p<0.05, FIG. 8 A-B): significantly smaller than that in the control group | proportion of Treg (CD25+Foxp3+) cells in tumors ([7]; LLC tumors, flow cytometry, FIG. 9 A-B): significantly reduced | proportion of Th17 (IL-17a+) cells in tumors ([7]; LLC tumors, flow cytometry, FIG. 9 C-D): significantly increased
